“Also recorded” adds a separate entry of the source.
Legend:
[1] = system: pain or spasticity in patients suffering from spinal cord injury; assay: Administration of sildenafil citrate (50 mg VIAGRA tablet) to three male patients with spinal cord injury; type: in vivo, human; details: for Effect of alleviating pain or spasticity caused by spinal cord injury (in words): patients with spinal cord injury (Patients 1 to 3), comparison with customary analgesics
Description: Sildenafil citrate was administered to three male patients of ages 30-73, who have sexual dysfunction and somatic pain. Patient 1: 7th thoracic vertebrae injury and complete paraplegia. […] Erectile dysfunction. Every day behavior: Wheel chair. Patient 2: 12th thoracic vertebrae injury and complete paraplegia. […] Erectile dysfunction. Every day behavior: Wheel chair. Patient 3: 6th cervical vertebrae injury and incomplete quadriplegia. They were constantly suffering from limb pain and spasticity. Erectile dysfunction. Every day behavior: Wheel chair. Patients 1 to 3 were dosed with a 50 mg tablet of […]® in the unit dosage form when feeling pain or spasticity.

peripheral nociception = details: potentiated by sodium nitroprasside and L-arginine; cited from earlier work
[2] = system: morphine-induced antinociception; details: with morphine; cited from earlier work
nociception = details: alone and with diclofenac; cited from earlier work
[3] = Patient 1, Th7 complete paraplegia, 50 mg tablet
[4] = Patient 1, Th7 complete paraplegia, 50 mg tablet, monocitrate
[5] = Patient 2, Th12 complete paraplegia, 50 mg tablet, monocitrate
[6] = Patient 3, C6 incomplete quadriplegia, 50 mg tablet, monocitrate

Compound: O=C(O)Cc1ccccc1Nc1c(Cl)cccc1Cl [diclofevac sodium]
- Effect of alleviating pain or spasticity caused by spinal cord injury (in words) [1]: no effects of alleviating pain or spasticity could be found
- Effect of alleviating pain or spasticity caused by spinal cord injury (in words) ([1]; listed as Voltaren): does not have any analgesic effects

Compound: CC(C(=O)O)c1ccc(CC2CCCC2=O)cc1 (stereo not shown) [loxoprofen sodium]
- Effect of alleviating pain or spasticity caused by spinal cord injury (in words) [1]: no effects of alleviating pain or spasticity could be found
- Effect of alleviating pain or spasticity caused by spinal cord injury (in words) ([1]; listed as Loxonin): does not have any analgesic effects

Compound: CCCc1nn(C)c2c(=O)[nH]c(-c3cc(S(=O)(=O)N4CCN(C)CC4)ccc3OCC)nc12.O=C(O)CC(O)(CC(=O)O)C(=O)O [sildenafil citrate, 1-[[3-(6,7-dihydro-1-methyl-7-oxo-3-propyl-1H-pyrazolo[4,3-d]pyrimidin-5-yl)-4-ethoxyphenyl]sulfonyl]-4-methylpiperazine monocitrate]
- Emerging Time of Effect After Administration [1, 3]: 30 min
- Time until side effect (light heat sensation) disappeared [1, 3]: two to three
- Duration of Effects [1, 4]: around half; also recorded: half day
- Improvement of Erectile Dysfunction [1, 4]: improved and Yes
- Side Effects [1, 4]: Light heat sensation
- Effects of alleviating pain or spasticity ([1]; Patient 2, Th12 complete paraplegia, 50 mg tablet): by about 30%
- Duration of Effects [1, 5]: around one; also recorded: about one day
- Emerging Time of Effect After Administration [1, 5]: around one; also recorded: one hour
- Improvement of Erectile Dysfunction [1, 5]: not improved and No
- Side Effects [1, 5]: No side effect was observed and No
- Duration of Effects [1, 6]: 5 to 6 h
- Improvement of Erectile Dysfunction [1, 6]: improved and No
- Side Effects [1, 6]: No side effect was observed and No
- Effect of alleviating pain or spasticity caused by spinal cord injury (in words) [1]: significantly alleviates the pain or spasticity
- Alleviation of the pain or spasticity ([1]; summary over Patients 1 to 3, 50 mg): 20 to 50%

Compound: CCCc1nn(C)c2c(=O)[nH]c(-c3cc(S(=O)(=O)N4CCN(C)CC4)ccc3OCC)nc12 [sildenafil, 5-[2-ethoxy-5-(4-methyl-1-piperazinylsulphonyl)phenyl]-1-methyl-3-n-propyl-1,6-dihydro-7H-pyrazolo[4,3-d]pyrimidin-7-one]
- Antinociception (peripheral nociception): induces antinociception
- Effect on morphine-induced antinociception [2]: significantly increases the morphine-induced antinociception
- Antinociceptive activity (nociception): produces antinociceptive activity, and increases that of diclofenac

Source: patent publication US20050107405A1, “Pharmaceutical composition for alleviating pain or spasticity in a patient suffering from spinal cord injury” (priority 2003, published 2005)
